Holding throughout (type): cell-based
One data set has as its system SKHep1. Briefly: 51Cr release assay of peptide-induced human CTLs against cancer cell line. The note with it: CTLs from healthy donors. The text has this:
(§1) Human pancreatic cancer cell line PK8 was kindly provided by the Cell Resource Center for Biomedical Research, Institute of Development, Aging and Cancer, Tohoku University. Human colon cancer cell line HCT116 was kindly provided by Dr. B. Vogelstein, Johns Hopkins University (Baltimore, Md.). Human liver cancer cell line SKHep1 was kindly provided by Professor Kyogo Ito, Kurume University (Kurume, Japan).
(§2) PBMCs derived from heparinized blood of HLA-A2 positive pancreatic cancer patients, gastric cancer patients, colorectal cancer patients, or healthy donors were isolated by Ficoll-Conray density gradient centrifugation. […] DCs were pulsed with 20 μg/mL of a candidate peptide in the presence of 4 μg/mL β2-microglobulin (Sigma-Aldrich, St. Louis, Mo., USA) for two hours at 37° C. in AIM-V (Invitrogen) containing 2% heat-inactivated autologous plasma. These DCs were then irradiated (40 Gy) and incubated with CD8 positive cells. The incubation was carried out in 24-well plates, which were prepared to contain in each well 2 mL of AIM-V supplemented with 2% autologous plasma, 1×10^5 peptide-pulsed DCs, 2×10^6 CD8^+ T cells, and 5 ng/mL of human recombinant IL-7 (Wako, Osaka, Japan). After two days, these cultures were supplemented with human recombinant IL-2 (PeproTec Inc.) to a final concentration of 20 IU/mL. Two additional weekly stimulations with the same peptide-pulsed autologous DCs using the same procedure were carried out on day 7 and day 14. Six days after the last stimulation, the antigen-specific responses of induced CTLs were evaluated by ^51Cr release assay and IFN-γ ELISPOT assay.

For another data set, the system named is HCT116. The description is as above. The note with it: for cytotoxicity to HCT116 (CDH3+, HLA-A2+): CTLs from healthy donors; for cytotoxicity to HCT116: FIG. 4C: CTLs from PBMCs of HLA-A2 positive cancer patients.
Excerpt: as §1, §2

Another data set relates to HSC3. The data set is described as above. The note with it: CTLs from healthy donors.
Excerpt: as §1, §2

The next data set concerns PANC1. The data set is described as above. The note with it: CTLs from healthy donors.
Excerpt: as §1, §2

A further data set deals with PK8. Described as above. The following applies: CTLs from healthy donors.
Excerpt: as §1, §2

The next data set relates to PANC1/CDH3. Described as above. The following applies: for cytotoxicity to PANC1/CDH3: FIG. 4C: CTLs from PBMCs of HLA-A2 positive cancer patients. Here is the method: as §1
(§3) After 60 hours, the culture medium was recovered and the viral particles were pelleted by ultracentrifugation (50,000×g, two hours).
as §2

A further data set relates to SKHep1/CDH3. The description is as above. The following applies: FIG. 4C: CTLs from PBMCs of HLA-A2 positive cancer patients. Here is the method: as §1, §3, §2
Another data set deals with T2 cells. Briefly: 51Cr release assay of peptide-induced human CTLs against peptide-pulsed T2 cells. The following applies: CTLs induced from PBMCs of HLA-A2 positive healthy donors, three stimulations.
Excerpt: as §1
PBMCs derived from heparinized blood of HLA-A2 positive pancreatic cancer patients, gastric cancer patients, colorectal cancer patients, or healthy donors were isolated by Ficoll-Conray density gradient centrifugation. […] DCs were pulsed with 20 μg/mL of a candidate peptide in the presence of 4 μg/mL β2-microglobulin (Sigma-Aldrich, St. Louis, Mo., USA) for two hours at 37° C. in AIM-V (Invitrogen) containing 2% heat-inactivated autologous plasma. These DCs were then irradiated (40 Gy) and incubated with CD8 positive cells. […] Six days after the last stimulation, the antigen-specific responses of induced CTLs were evaluated by ^51Cr release assay and IFN-γ ELISPOT assay.
CD8 T cells sorted from PBMCs were incubated with autologous mononuclear cell (monocyte)-derived DCs pulsed with each peptide. After three stimulations, cytocidal effect against peptide-pulsed T2 cells was evaluated by ^51Cr release assay (FIG. 4A) and IFN-γ ELISPOT assay.

“Also recorded” adds a separate entry of the source. Where a SMILES comes first, the peptide text is derived from it.

As to `CC[C@H](C)[C@H](NC(=O)[C@@H](N)Cc1ccccc1)C(=O)N[C@@H](CC(C)C)C(=O)N1CCC[C@H]1C(=O)N[C@H](C(=O)N[C@@H](CC(C)C)C(=O)NCC(=O)N[C@@H](C)C(=O)N[C@H](C(=O)O)C(C)C)C(C)C` [CDH3-4, FILPVLGAV] (H-FILPVLGAV-OH), the “cytotoxicity to SKHep1 (CDH3−, HLA-A2+)” value in the data set on SKHep1 is “did not exhibit the same effect”. In the data set with HCT116, the “cytotoxicity to HCT116 (CDH3+, HLA-A2+)” value is reported as “exhibited in healthy donors cytotoxicity” and the “cytotoxicity to HCT116” value is given as “exhibited cytotoxicity”. The “cytotoxicity to HSC3 (CDH3+, HLA-A2+)” value in the data set on HSC3 is given as “exhibited in healthy donors cytotoxicity”. In addition, the “cytotoxicity to PANC1 (CDH3−, HLA-A2+)” value in the data set on PANC1 is recorded as “did not exhibit the same effect”. For the same compound, in the data set with PK8, the “cytotoxicity to PK8 (CDH3+, HLA-A2−)” value was “did not exhibit the same effect”. The “cytotoxicity to PANC1/CDH3 (CDH3+, HLA-A2+)” value in the data set on PANC1/CDH3 (CTLs from healthy donors) is reported as “exhibited in healthy donors cytotoxicity”. Besides, in the data set with PANC1/CDH3, the “cytotoxicity to PANC1/CDH3” value is recorded as “exhibited cytotoxicity”. Besides, the “cytotoxicity to SKHep1/CDH3 (CDH3+, HLA-A2+)” value with SKHep1/CDH3 is “exhibited cytotoxicity”. For the same compound, in the data set on T2 cells (listed as CDH3-4655-663), the “cytotoxicity (cytocidal effect) against peptide-pulsed T2 cells” value is on record as “exhibited cytocidal effect; also recorded: exhibited cytotoxicity”.
`CC[C@H](C)[C@H](NC(=O)[C@@H](NC(=O)[C@@H](N)Cc1ccccc1)[C@@H](C)CC)C(=O)N[C@@H](CCC(=O)O)C(=O)N[C@@H](CC(N)=O)C(=O)N[C@@H](CC(C)C)C(=O)N[C@@H](CCCCN)C(=O)N[C@@H](C)C(=O)N[C@@H](C)C(=O)O` [CDH3-7, FIIENLKAA] (H-FIIENLKAA-OH): in the data set with HCT116, the “cytotoxicity to HCT116” value was “exhibited cytotoxicity”. Further, the “cytotoxicity to HSC3 (CDH3+, HLA-A2+)” value in the data set with HSC3 is “exhibited cytotoxicity”. In the data set on PANC1/CDH3, the “cytotoxicity to PANC1/CDH3” value is reported as “exhibited cytotoxicity”. For the same compound, the “cytotoxicity to SKHep1/CDH3 (CDH3+, HLA-A2+)” value in the data set with SKHep1/CDH3 was “exhibited cytotoxicity”. For the same compound, the “cytotoxicity (cytocidal effect) against peptide-pulsed T2 cells” value in the data set on T2 cells (listed as CDH3-7757-765) was “exhibited cytocidal effect; also recorded: exhibited cytotoxicity”.
On to `CC(C)C[C@H](NC(=O)[C@@H](NC(=O)[C@H](C)NC(=O)[C@H](Cc1ccc(O)cc1)NC(=O)[C@@H](NC(=O)[C@H](CC(N)=O)NC(=O)[C@H](Cc1ccc(O)cc1)NC(=O)[C@H](CC(C)C)NC(=O)[C@@H](N)CO)[C@@H](C)O)[C@@H](C)O)C(=O)O` [HIV peptide, SLYNTYATL, reference compound] (H-SLYNTYATL-OH), for which the “cytotoxicity to HCT116 (CDH3+, HLA-A2+)” value in the data set with HCT116 is recorded as “did not exhibit cytotoxicity; also recorded: did not show cytotoxicity”.

For the origin of these results see patent US8455444B2, “CDH3 peptide and medicinal agent comprising the same” (Oncotherapy Science, Inc., priority 2007, dated 2013).
